Experimental data published in article PMC12718081 (ACS Infectious Diseases, 2025).
Values joined by “and” are separate entries in the source; they are usually repeats but may differ in a detail not shown here. Equal values may be shown once. Read-outs that look alike come from different tables or passages of the source.

Columns and labels:
juvenile schistosomes = experiment: Microscopy analysis of juvenile morphology and motility (viability score 0-3); conditions: 72 h
Sm.TRPMMCLZ = experiment: Ca2+ reporter (FLIPR) activation assay, Sm.TRPMMCLZ in HEK293 cells; assay type: cell-based, Schistosoma mansoni; conditions: at the tested concentrations, data not shown
Description: (§1) Finally, selectivity for Sm.TRPMPZQ was assessed by profiling responses on the F. hepatica (Fh.TRPMPZQ) and E. granulosus (Eg.TRPMPZQ) TRPMPZQ orthologs, as well as the schistosome TRPM paralog Sm.TRPMMCLZ, a distinct TRPM channel activated by meclonazepam. Meclonazepam is an anthelmintic benzodiazepine known for its toxicity to juvenile schistosome worms.
(§2) The Ca^2+ reporter assay was performed using a Fluorescence Imaging Plate Reader (FLIPR) system, as described in the Supporting Information. […]
(§3) The half-maximal inhibitory
(§4) Windows (GraphPad Software, Boston, MA, USA; www.graphpad.com). […]
(§5) with DMSO as a negative control. […]
(§6) reader. […] The fluorescence
(§7) Untransfected HEK293 cells were used as a control.
(§8) 10% fetal bovine serum (FBS). […]
(§9) atmosphere containing 5% CO₂. Following incubation, the growth medium was removed and […]
(§10) buffer containing 2.5 mM probenecid in HBSS (with Ca²⁺ and Mg²⁺), 20 mM HEPES, 0.3% BSA (Sigma, A7030), and 0.03% L-ascorbic acid (Sigma). Cells were incubated for 40 minutes at 37 °C and subsequently for 20 minutes at room temperature. A total of seven PZQ derivatives were tested, using racemic PZQ included as a positive control on each assay plate. Drug dilutions were prepared in assay buffer without dye and probenecid and dispensed into separate flat-bottom 384-well plates. Calcium flux measurements were performed at room temperature using a […]
(§11) instrument (Molecular Devices). Baseline fluorescence was recorded for 20 seconds, followed by the addition of 5 µL of each drug solution, after which fluorescence was measured continuously for 250 seconds. […]

[1] = system: HepG2 hepatic epithelial cells; experiment: in vitro
Description: (§12) Next, we conducted a more detailed investigation by performing dose–response assays with each compound on HepG2 hepatic epithelial cells, as the liver is one of the major organs affected in intestinal schistosomiasis.
(§13) More details are provided in the Supporting Information.
(§14) Adult worm ex-vivo high-content assay
(§15) Male and female worms were placed in 96-well microplates (one worm per well) and incubated […]
(§16) to 72 hours. Brightfield timelapse images (100 images, 0.3-second intervals) were captured from each well before, immediately after, and every 24 hours following compound addition using an ImageXpress Micro Confocal High Content System equipped with a 2x objective. Image analysis was performed through a custom pipeline in CellProfiler software (v. 4.2.1, Windows OS).57 During analysis, the area of each worm and its displacement between consecutive image captures (i.e., images taken at successive time points) were measured using the parameters “Area” and “False Negative Rate” from the MeasureObjectSizeShape and MeasureObjectOverlap modules, respectively. These measurements were then modeled by a multilevel generalized linear statistical model. The effects of the experimental treatments on parasite motility were estimated with the integrated nested Laplace approximation (INLA) method, available in the INLA package of R (https://www.r-inla.org). The half-maximal inhibitory concentration (EC50) of each compound was calculated based on the worms' estimated motility using the […] 4-parameter logistic equation in GraphPad Prism version 9.0.0 for Windows (GraphPad Software, Boston, MA, USA; www.graphpad.com). […]
(§17) either at a fixed concentration (10 µM) or across a range of concentrations (0.0001–300 µM), or with DMSO as a negative control. Two hours before the end of the experiment (t0), a resazurin solution (final concentration: 0.01 mg/mL) was added to each well and the first fluorescence […]
(§18) reader. At the end of the incubation (t1), a second reading was performed. The fluorescence attributed solely to resorufin was measured by subtracting the fluorescence readings at t0 from those at t1. The results were expressed as percentual cell viability considering negative control

in vitro = conditions: human, HepG2 cytotoxicity (CC50)
Description: as §12, §13, §14, §15, §16, §17, §18

[2] = system: adult schistosomes (male and female worms); experiment: Adult worm ex vivo high-content image-based motility assay; assay type: cell-based, Schistosoma mansoni
Fh.TRPMPZQ = experiment: Ca2+ reporter (FLIPR) activation assay, Fh.TRPMPZQ in HEK293 cells; assay type: cell-based, Fasciola hepatica; conditions: at the tested concentrations, data not shown
Description: as §1, §2, §3, §4, §5, §6, §7, §8, §9, §10, §11

Sm.TRPMPZQ (wild-type) = Sm.TRPMPZQ (wild-type) (Schistosoma mansoni, UniProt A0A5K4F0X5); experiment: Ca2+ reporter (FLIPR) activation assay, wild-type Sm.TRPMPZQ in HEK293 cells; assay type: cell-based
How it was run: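 Wild-type Sm.TRPMPZQ in HEK293 cells, with untransfected HEK293 as control. Cells dye-loaded in HBSS/20 mM HEPES buffer with 2.5 mM probenecid, 0.3% BSA and 0.03% ascorbic acid (40 min 37 °C, then 20 min RT). FLIPR Ca²⁺ flux at room temperature: 20 s baseline, then drug addition, then 250 s recording.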

Eg.TRPMPZQ = Eg.TRPMPZQ (Echinococcus granulosus, UniProt W6UVV9); experiment: cell-based; conditions: HEK293, Ca2+ reporter, mean ± standard deviation; read-out: Bmax, Eg.TRPMPZQ activation
Sequence of Eg.TRPMPZQ (W6UVV9 entry or part of it): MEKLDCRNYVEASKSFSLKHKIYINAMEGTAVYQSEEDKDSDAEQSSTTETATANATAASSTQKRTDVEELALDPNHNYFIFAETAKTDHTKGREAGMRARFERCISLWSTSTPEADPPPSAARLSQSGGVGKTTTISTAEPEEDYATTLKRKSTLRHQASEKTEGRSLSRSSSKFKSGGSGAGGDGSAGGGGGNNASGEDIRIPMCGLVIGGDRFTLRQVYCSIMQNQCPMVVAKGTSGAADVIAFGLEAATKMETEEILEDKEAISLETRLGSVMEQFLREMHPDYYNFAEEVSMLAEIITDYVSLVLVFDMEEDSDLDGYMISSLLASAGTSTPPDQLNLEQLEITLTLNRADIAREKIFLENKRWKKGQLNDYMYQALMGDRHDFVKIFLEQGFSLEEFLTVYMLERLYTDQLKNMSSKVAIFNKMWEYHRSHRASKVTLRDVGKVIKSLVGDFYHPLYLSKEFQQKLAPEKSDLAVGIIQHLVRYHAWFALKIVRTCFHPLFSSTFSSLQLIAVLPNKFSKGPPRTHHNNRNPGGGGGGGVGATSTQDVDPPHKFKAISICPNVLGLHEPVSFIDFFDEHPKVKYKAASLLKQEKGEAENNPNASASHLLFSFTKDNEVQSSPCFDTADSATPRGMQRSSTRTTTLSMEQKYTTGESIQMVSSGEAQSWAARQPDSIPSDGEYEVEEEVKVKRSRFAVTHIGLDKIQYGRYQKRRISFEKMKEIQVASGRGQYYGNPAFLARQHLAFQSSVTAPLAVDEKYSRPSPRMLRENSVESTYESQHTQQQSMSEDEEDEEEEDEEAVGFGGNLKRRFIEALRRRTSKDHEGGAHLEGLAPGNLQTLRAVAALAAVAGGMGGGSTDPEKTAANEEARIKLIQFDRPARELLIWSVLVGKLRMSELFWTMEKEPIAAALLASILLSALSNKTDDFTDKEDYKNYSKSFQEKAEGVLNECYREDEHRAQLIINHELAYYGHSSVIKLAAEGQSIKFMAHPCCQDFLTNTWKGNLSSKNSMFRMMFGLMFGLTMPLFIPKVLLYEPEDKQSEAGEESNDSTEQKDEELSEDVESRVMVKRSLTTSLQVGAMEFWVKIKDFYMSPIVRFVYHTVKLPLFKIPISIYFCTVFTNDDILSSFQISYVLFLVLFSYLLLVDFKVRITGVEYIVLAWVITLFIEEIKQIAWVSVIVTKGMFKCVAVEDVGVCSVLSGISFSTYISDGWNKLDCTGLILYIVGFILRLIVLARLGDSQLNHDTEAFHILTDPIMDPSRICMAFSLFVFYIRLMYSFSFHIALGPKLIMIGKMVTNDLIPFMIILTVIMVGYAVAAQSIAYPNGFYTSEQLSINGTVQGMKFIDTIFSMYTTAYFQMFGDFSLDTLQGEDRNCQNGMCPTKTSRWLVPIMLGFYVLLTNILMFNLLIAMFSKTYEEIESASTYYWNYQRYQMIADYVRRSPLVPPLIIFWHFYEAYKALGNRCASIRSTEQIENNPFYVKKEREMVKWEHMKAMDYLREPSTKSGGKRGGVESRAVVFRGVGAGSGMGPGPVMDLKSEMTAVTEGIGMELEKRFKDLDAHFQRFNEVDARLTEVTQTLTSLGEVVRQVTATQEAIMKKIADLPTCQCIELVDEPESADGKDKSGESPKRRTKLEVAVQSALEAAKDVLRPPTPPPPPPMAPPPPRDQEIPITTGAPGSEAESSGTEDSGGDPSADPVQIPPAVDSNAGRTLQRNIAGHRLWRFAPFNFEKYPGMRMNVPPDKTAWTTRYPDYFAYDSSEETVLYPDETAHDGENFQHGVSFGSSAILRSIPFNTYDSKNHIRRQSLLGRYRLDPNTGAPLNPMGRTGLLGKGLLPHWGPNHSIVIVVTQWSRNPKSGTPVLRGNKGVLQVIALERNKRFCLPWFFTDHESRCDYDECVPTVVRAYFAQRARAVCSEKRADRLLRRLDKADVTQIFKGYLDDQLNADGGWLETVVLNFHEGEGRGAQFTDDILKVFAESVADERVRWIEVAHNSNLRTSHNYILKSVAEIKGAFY

Sequence of Sm.TRPMPZQ (wild-type) (A0A5K4F0X5 entry or part of it): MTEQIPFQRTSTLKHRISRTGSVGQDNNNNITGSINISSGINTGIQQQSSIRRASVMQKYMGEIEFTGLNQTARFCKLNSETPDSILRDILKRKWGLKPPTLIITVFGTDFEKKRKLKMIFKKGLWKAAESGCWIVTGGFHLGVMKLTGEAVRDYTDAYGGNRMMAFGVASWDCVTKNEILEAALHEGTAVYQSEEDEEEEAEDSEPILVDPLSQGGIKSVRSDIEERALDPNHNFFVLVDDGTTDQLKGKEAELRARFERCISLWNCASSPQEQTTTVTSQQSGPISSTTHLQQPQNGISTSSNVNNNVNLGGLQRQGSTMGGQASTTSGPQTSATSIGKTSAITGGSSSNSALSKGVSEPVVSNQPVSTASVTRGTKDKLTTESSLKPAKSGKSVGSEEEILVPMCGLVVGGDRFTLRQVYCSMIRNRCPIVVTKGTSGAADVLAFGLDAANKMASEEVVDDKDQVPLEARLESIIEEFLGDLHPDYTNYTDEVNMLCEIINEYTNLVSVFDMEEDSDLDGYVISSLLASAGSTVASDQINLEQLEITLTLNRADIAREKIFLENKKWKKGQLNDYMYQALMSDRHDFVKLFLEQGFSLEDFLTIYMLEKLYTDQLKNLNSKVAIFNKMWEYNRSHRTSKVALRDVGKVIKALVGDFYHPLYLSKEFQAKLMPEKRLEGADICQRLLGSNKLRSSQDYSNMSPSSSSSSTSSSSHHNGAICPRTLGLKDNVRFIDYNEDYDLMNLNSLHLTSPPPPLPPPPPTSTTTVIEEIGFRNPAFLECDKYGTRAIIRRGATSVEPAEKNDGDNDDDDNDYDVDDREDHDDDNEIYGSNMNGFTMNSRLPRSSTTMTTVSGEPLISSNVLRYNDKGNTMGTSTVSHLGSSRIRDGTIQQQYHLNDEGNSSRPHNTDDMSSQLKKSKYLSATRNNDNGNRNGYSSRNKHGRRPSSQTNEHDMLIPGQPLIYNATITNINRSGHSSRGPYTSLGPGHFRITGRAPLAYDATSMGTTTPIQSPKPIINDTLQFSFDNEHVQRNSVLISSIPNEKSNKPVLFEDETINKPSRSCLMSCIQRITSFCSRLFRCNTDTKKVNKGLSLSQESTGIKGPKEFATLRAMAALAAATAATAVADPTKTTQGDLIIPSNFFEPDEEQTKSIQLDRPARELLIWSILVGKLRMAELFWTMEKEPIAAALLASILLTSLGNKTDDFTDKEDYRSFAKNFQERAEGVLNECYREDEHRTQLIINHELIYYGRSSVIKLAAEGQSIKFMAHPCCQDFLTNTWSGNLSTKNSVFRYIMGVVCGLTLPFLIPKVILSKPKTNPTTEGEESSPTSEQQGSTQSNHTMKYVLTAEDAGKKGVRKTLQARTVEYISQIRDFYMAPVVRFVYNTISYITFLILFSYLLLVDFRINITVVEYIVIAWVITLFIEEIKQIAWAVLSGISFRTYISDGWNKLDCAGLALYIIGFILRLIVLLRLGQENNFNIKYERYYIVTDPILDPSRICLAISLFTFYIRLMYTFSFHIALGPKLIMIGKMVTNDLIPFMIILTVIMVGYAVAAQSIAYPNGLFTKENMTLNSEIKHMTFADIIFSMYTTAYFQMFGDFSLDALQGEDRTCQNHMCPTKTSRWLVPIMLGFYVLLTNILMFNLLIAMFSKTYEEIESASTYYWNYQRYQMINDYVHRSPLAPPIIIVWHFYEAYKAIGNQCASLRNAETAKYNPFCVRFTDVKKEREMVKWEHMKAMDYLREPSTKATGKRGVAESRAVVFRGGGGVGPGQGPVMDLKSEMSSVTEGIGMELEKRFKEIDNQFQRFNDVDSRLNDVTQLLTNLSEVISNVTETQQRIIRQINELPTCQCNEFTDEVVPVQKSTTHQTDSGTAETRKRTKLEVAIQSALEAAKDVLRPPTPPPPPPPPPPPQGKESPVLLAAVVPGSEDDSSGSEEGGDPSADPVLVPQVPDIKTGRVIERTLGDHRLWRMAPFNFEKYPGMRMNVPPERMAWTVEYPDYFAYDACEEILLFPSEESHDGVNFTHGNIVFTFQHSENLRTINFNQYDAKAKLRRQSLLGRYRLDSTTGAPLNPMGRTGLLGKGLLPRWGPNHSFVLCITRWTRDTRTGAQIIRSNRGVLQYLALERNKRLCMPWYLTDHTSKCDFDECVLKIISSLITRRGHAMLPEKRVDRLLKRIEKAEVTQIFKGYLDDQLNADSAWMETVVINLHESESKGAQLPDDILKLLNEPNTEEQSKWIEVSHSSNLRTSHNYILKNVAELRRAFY

Structure (SMILES): CCCc1cn(-c2ccc3c(c2)C2CN(C(=O)C4CCCCC4)CC(=O)N2CC3)nn1 (stereo not shown) [Compound 5e]
- number of juvenile worms with viability score 0 (juvenile schistosomes; 10 μM, Table S1): 61
- number of juvenile worms with viability score 1 (juvenile schistosomes; 10 μM, Table S1): 7
- number of juvenile worms with viability score 2 (juvenile schistosomes; 10 μM, Table S1): 34
- number of juvenile worms with viability score 3 (juvenile schistosomes; 10 μM, Table S1): 6
- viability at 10 µM (juvenile schistosomes; Schistosoma mansoni, read-out: Relative frequency of viability score 3): 5.6%
- activation of Sm.TRPMMCLZ (Sm.TRPMMCLZ): did not activate
- Selectivity Index (CC50/EC50), Female ([1]; HepG2 CC50 / female worm motility EC50, 48 h): 75.4 and 75
- Selectivity Index (CC50/EC50), Male ([1]; HepG2 CC50 / male worm motility EC50, 48 h): 154.7 and 155
- Selectivity Index (SI), sex not specified ([1]; HepG2 vs adult worms, 48 h): > 100
- CC50 at 48 h (in vitro): ~300000 nM
- CC50 at 48 h (in vitro; values of independent experiments): 286000 nM
- EC50 ([2]; Schistosoma mansoni, 0 h, female adult worms, 0 h (immediately after addition), single experiment or geometric mean, read-out: Female worm motility inhibition (EC50)): 3500 nM
- EC50 ([2]; Schistosoma mansoni, 0 h, female, 0 h, individual experiments, read-out: Female worm motility inhibition (EC50), values of independent experiments): 2980 nM
- EC50 ([2]; Schistosoma mansoni, 0 h, male adult worms, 0 h (immediately after addition), single experiment or geometric mean, read-out: Male worm motility inhibition (EC50)): 2600 nM
- EC50 ([2]; Schistosoma mansoni, 0 h, male, 0 h, individual experiments, read-out: Male worm motility inhibition (EC50), values of independent experiments): 2500 nM
- EC50 ([2]; Schistosoma mansoni, 24 h, female adult worms, 24 h, single experiment or geometric mean, read-out: Female worm motility inhibition (EC50)): 3600 nM
- EC50 ([2]; Schistosoma mansoni, 24 h, female, 24 h, individual experiments, read-out: Female worm motility inhibition (EC50), values of independent experiments): 3700 nM
- EC50 ([2]; Schistosoma mansoni, 24 h, male adult worms, 24 h, single experiment or geometric mean, read-out: Male worm motility inhibition (EC50)): 2500 nM
- EC50 ([2]; Schistosoma mansoni, 24 h, male, 24 h, individual experiments, read-out: Male worm motility inhibition (EC50), values of independent experiments): 2290 nM
- EC50 ([2]; Schistosoma mansoni, 48 h, female adult worms, 48 h, single experiment or geometric mean, read-out: Female worm motility inhibition (EC50)): 3900 nM
- EC50 ([2]; Schistosoma mansoni, 48 h, female, 48 h, individual experiments, read-out: Female worm motility inhibition (EC50), values of independent experiments): 3140 nM
- EC50 ([2]; Schistosoma mansoni, 48 h, male adult worms, 48 h, single experiment or geometric mean, read-out: Male worm motility inhibition (EC50)): 1900 nM
- EC50 ([2]; Schistosoma mansoni, 48 h, male and female, 48 h, read-out: EC50 against schistosomes (adult motility), span over male and female): 1900 to 3900 nM
- EC50 ([2]; Schistosoma mansoni, 48 h, male, 48 h, individual experiments, read-out: Male worm motility inhibition (EC50), values of independent experiments): 1700 nM
- EC50 ([2]; Schistosoma mansoni, 72 h, female adult worms, 72 h, single experiment or geometric mean, read-out: Female worm motility inhibition (EC50)): 3100 nM
- EC50 ([2]; Schistosoma mansoni, 72 h, female, 72 h, individual experiments, read-out: Female worm motility inhibition (EC50), values of independent experiments): 2940 nM
- EC50 ([2]; Schistosoma mansoni, 72 h, male adult worms, 72 h, single experiment or geometric mean, read-out: Male worm motility inhibition (EC50)): 1700 nM
- EC50 ([2]; Schistosoma mansoni, 72 h, male, 72 h, individual experiments, read-out: Male worm motility inhibition (EC50), values of independent experiments): 1640 nM
- EC50 ([2]; Schistosoma mansoni, female, 0-72 h, read-out: EC50 against female adult worms (motility), span over incubation times): 3100 to 3900 nM
- EC50 ([2]; female, 0 h, individual experiments, read-out: Female worm motility inhibition (EC50), values of independent experiments): 2780 nM
- EC50 ([2]; female, 48 h, individual experiments, read-out: Female worm motility inhibition (EC50), values of independent experiments): 4770 nM
- EC50 ([2]; female, 72 h, individual experiments, read-out: Female worm motility inhibition (EC50), values of independent experiments): 3300 nM
- EC50 ([2]; male, 0 h, individual experiments, read-out: Male worm motility inhibition (EC50), values of independent experiments): 2680 nM
- EC50 ([2]; male, 24 h, individual experiments, read-out: Male worm motility inhibition (EC50), values of independent experiments): 2320 nM and 2840 nM
- EC50 ([2]; male, 48 h, individual experiments, read-out: Male worm motility inhibition (EC50), values of independent experiments): 2120 nM and 1990 nM
- EC50 ([2]; male, 72 h, individual experiments, read-out: Male worm motility inhibition (EC50), values of independent experiments): 1990 nM
- activation of Fh.TRPMPZQ (Fh.TRPMPZQ): did not activate
- EC50 (Sm.TRPMPZQ (wild-type); 0.001 to 100 μM): 4230 ± 150 nM
- Emax (Sm.TRPMPZQ (wild-type); read-out: Bmax, wild-type Sm.TRPMPZQ activation): 90.2 ± 1.53%
- Emax (Eg.TRPMPZQ): 132 ± 15%
